These are literature values, as cited in US6525037B1, “Method of treating atherosclerosis and complications resulting therefrom” (BioNumerik Pharmaceuticals, Inc., priority 2000, dated 2003).

Molecules are shown by their SMILES.

For the series the following is noted: accepted value.

Turning to `[Cl-].[Na+]` [common table salt], the “oral LD50” value is 3750 mg/kg.
